According to patent publication US7388003B2, “Δ15-D-Homosteroids with androgenic action” (Bayer Schering Pharma AG, priority 2003, dated 2008):

How the values were obtained:
[1] = biological target: T1, Androgen Receptor (Homo sapiens, UniProt P10275); assay: Relative binding affinities (RBA) to the androgen receptor compared to testosterone and methyltrienolone; conditions: relative binding affinity to the androgen receptor; R 1881 (Methyltrienolone) = 100
T1 sequence (P10275 1-920): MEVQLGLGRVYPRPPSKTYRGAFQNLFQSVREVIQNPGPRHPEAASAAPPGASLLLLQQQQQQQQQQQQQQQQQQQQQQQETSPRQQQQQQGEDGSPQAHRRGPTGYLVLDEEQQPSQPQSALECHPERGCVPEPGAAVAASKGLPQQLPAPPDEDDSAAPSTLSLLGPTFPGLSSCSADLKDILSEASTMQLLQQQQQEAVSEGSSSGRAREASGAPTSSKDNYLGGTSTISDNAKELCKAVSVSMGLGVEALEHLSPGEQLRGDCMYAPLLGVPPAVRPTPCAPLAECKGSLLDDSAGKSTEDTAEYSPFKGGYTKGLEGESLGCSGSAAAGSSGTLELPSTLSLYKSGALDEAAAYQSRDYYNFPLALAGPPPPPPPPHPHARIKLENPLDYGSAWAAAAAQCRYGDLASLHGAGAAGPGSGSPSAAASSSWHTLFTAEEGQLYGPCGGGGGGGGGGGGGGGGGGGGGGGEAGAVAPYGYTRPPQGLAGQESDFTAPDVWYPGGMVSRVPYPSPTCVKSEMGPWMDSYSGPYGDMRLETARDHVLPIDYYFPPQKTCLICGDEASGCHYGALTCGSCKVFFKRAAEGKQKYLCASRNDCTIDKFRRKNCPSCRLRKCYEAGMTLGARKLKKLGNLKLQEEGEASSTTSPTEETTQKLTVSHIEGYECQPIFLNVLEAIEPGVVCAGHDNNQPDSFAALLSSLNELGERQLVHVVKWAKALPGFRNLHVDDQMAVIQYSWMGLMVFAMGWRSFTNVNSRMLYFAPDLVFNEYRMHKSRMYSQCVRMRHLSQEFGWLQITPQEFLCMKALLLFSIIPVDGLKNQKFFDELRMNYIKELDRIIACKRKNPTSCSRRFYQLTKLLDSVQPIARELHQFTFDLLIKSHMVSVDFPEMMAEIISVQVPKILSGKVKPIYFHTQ

[2] = biological target: T1, Androgen Receptor; assay: Receptor binding affinity to the androgen receptor (reference DHT=100%)

CC12CCC3C4CCC(=O)C=C4CCC3C1C=CCC2O [Example 1, 17aβ-Hydroxy-D-homoestra-4,15-dien-3-one]
RBA % [1]: 25%

CC12CCC(=O)C=C1CCC1C2CCC2(C)C(O)CC=CC12 [Example 2, 17aβ-Hydroxy-D-homoandrost-4,15-dien-3-one]
RBA % [1]: 12%

C[C@]1(O)CC[C@H]2[C@@H]3CCC4=CC(=O)CCC4=C3C=C[C@@]21C [R 1881 (Methyltrienolone), Methyltrienolone]
RBA % [1]: 100%

CC1CC2=CC(=O)CCC2C2CCC3(C)C(O)C=CCC3C12 [17aβ-Hydroxy-7α-methyl-D-homoestra-4,16-dien-3-one]
receptor binding affinity to the androgen receptor [2]: 2%
